{"source": "patent US20120015899A1", "about": "(priority 2008, published 2012)", "origin": "cited, not measured here"}
{"smiles": "Cl.Nc1ccn([C@@H]2O[C@H](CO)[C@@H](O)C2(F)F)c(=O)n1", "note": "[Gemcitabine, Cytidine, 2′-deoxy-2′,2′-difluoro-, monohydrochloride]", "values": [{"measurement": "pKa", "value": 3.58}]}
